Source: patent EP0249194A2, “Topical prostaglandin formulations” (AMERICAN CYANAMID COMPANY, priority 1986, dated 1987)
Like-named read-outs stand apart in the source and are kept apart here.

Key:
male pattern baldness = assay: Clinical study of hair growth after once-daily topical application to the scalp, hair counts; format: in vivo, healthy, male volunteers; details: topical application of small amounts; mean hair counts over a six-month period (Figs. 1-5) and three-month chart
Description: Clinical studies using healthy, male volunteers (age 18-65) with vertex baldness and some recession of front hairline were performed using viprostol in Formulation A, above-described. The volunteers were not hypertensive. […] The hairs on such location were counted at the beginning of the study, and recounts were done periodically during the course of the study. All hair, including unpigmented vellus and pigmented intermediate and terminal hair was, counted, except as indicated hereinbelow. The amount of viprostol applied was approximately 120 mcg, which amount was applied once daily to the bald and balding areas of the scalp. The viprostol was contained in the above-described Formulation A. Approximately 0.3 ml of such formulation was topically to the scalp with an index finger and rubbing action. The scalp was clean (recently shampooed) and dry at application. The chart below summarizes the results after three months of study.
Additionally, as the study proceeded beyond three months, the results wre charted as mean hair counts over time.

[1] = Stability of viprostol compositions on storage in glass (ampules); format: physicochemical

C=CC(O)(CC=CC1C(O)CC(=O)C1CC=CCCCC(=O)OC)CCCC (racemic) [viprostol, Methyl (±)-[11α,5Z(5E), 13E, 16R and 16S]-16 ethenyl-11,16-dihydroxy-9-oxoprosta-5,13-dien-1-oate]
hair growth (male pattern baldness): caused hair growth | Stability of Viprostol Compositions (% of Initial Potency) ([1]; Initial): 100% | remaining at 1440 h ([1]; neat bulk liquid, 23°C 2 months, read-out: Stability of Viprostol Compositions (% of Initial Potency)): 99% | remaining at 4320 h ([1]; neat bulk liquid, 23°C 6 months, read-out: Stability of Viprostol Compositions (% of Initial Potency)): 87% | remaining at 8760 h ([1]; neat bulk liquid, 23°C 12 months, read-out: Stability of Viprostol Compositions (% of Initial Potency)): 20% | remaining at 13152 h ([1]; neat bulk liquid, 23°C 18 months, read-out: Stability of Viprostol Compositions (% of Initial Potency)): 12% | remaining at 1440 h ([1]; neat bulk liquid, 42°C 2 months, read-out: Stability of Viprostol Compositions (% of Initial Potency)): 83% | remaining at 720 h ([1]; neat bulk liquid, 56°C 1 month, read-out: Stability of Viprostol Compositions (% of Initial Potency)): 32% | remaining at 1440 h ([1]; neat bulk liquid, 56°C 2 months, read-out: Stability of Viprostol Compositions (% of Initial Potency)): 0%
